Results reported in patent US20140163075A1, “MODULATION OF THE UBIQUITIN-PROTEASOME SYSTEM (UPS)” (NETHERLAND CANCER INSTITUTE, priority 2011, published 2014).
Entries after “also recorded” stand apart in the source; their conditions may differ. Read-outs that look alike come from different tables or passages of the source. Residues, ends and D or L forms follow the SMILES beside them. *: point of attachment. Cbz = O=C(OCc1ccccc1)*

Tests used:
[1] = system: 20S and/or 26S proteasome; experiment: FACS-based proteasome activity assay with Me4BodipyFL-Ahx3Leu3VS activity probe in MelJuSo wild type cells; type: cell-based, human
Protocol: MelJuSo cells are washed, trypsinized and resuspended in medium containing FBS and antibiotics. After counting the concentration is adjusted to 200,000 cells per mL. Using the Wellmate microplate dispenser fitted with small bore nozzle tubing, 50 μL of cell suspension is transferred to each well of a black 384 wells plate (10,000 cells/well).
A brief spin down will prevent any liquid from being lost when the plate cover is removed. Using a Hamilton liquid handling workstation the compounds are diluted to appropriate concentrations. To “wash” the cells prior to exposure 30 μL of medium is removed from each well and is replaced with fresh medium. Then the compounds are added to the medium of the cells (final concentration 5 μM).
Using the Wellmate microplate dispenser fitted with small bore nozzle tubing, […] of probe suspension is transferred to each well resulting in a final probe concentration of 200 nM. Plates are left to incubate for two hours. Then the medium is removed and the cells are washed one time with PBS. The PBS is removed and 10 μL of trypsin is added to each well. The plates are left on a shaker for 2 minutes, placed in an incubator for 5 minutes and put on a shaker again for 2 minutes. 40 μL of PBS containing 2% FBS is added per well and the plates are put on the shaker for 2 minutes. Finally, 20 μL of PBS containing 4% formaldehyde is added and the plates are left to shake for at least 15 minutes. Plates are left on a shaker at 4° C. until they can be measured.
The FITS unit is installed on the FACS and everything is turned on. To remove air from the system and ascertain that everything works fine the system is primed twice. One by one the plates are brought down and measured. In between plates a “daily clean” cycle is performed to prevent the system from becoming clogged. After the last plate the system should be cleaned again.
Analysis is always performed per plate. Throughout the analysis the following parameters are considered: • Forward Scatter (FSC): size of the cell • Side Scatter (SSC): granularity of the cell • Number of events (#) • Probe signal (FL-1): proteasome activity • FL-2 and FL-3: signal in other channels
All DMSO samples are checked and aberrant wells (low # events, high SSC, no signal) are excluded. The average of the FL-1 from all remaining DMSO samples is used to calculate the “ratio vs. DMSO” and the FL-1 log 2 ratio of the experimental samples. This will result in DMSO samples having a FL-1 log 2 value around zero. Compounds are considered “activators” or “hits” if the FL-1 log 2 ratio is >1, and inhibitors if the FL-1 log 2 ratio is […].
(§1) Cells were washed once with phosphate buffered saline (PBS, 1 GIBCO tablet in 500 mL MilliQ). Fresh medium containing the compound at the indicated concentration was added. After the incubation time 200 nM of Me4BodipyFL-Ahx3Leu3VS activity probe was added to the cells and after two hours of incubation cells were harvested for subsequent analysis by FACS or post-lysis fluorescence detection.
Celts were washed once with PBS, trypsin was added and the plate was placed at 37° C. for 5 minutes to allow the cells to detach. When detached the cells were resuspended in PBS supplemented with 2% FBS. Cells were fixed with formaldehyde (final concentration 1% in PBS). All samples were measured using a FACSCalibur flow cytometer (BD Biosciences). […] The complete workflow used for the compound screens is described above in more detail.
The compound libraries mentioned above are screened using a FACS-based activity assay. The proteasome activity probe Me4BodipyFL-Ahx3Leu3VS activity probe is used to fluorescently label the proteasome. This probe binds irreversibly to the catalytic domains of the 20S CP. When proteasome activity is increased, increased probe binding results in an increase in fluorescent signal compared to untreated cells.

proteasome [2] = settings: literature overview; cited from earlier work
p38α = p38α (Homo sapiens, UniProt Q16539); settings: literature [80, 83]; cited from earlier work
p38α, sequence (Q16539 whole entry): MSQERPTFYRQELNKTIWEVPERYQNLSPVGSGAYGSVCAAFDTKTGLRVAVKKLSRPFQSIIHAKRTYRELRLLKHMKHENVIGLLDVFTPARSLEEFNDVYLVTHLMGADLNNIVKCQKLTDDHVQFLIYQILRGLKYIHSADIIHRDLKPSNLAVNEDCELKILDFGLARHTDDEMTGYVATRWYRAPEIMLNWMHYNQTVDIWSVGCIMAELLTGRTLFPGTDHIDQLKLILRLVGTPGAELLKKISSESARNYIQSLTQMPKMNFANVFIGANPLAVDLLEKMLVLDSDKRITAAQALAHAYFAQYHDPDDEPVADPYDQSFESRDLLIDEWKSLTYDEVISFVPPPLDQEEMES

[3] = system: proteasome subunits (β2- and β5-subunits); experiment: SDS-PAGE in-gel fluorescence of probe-labelled proteasome subunits in MelJuSo (MEL-JUSO) cells; type: cell-based, human; settings: for activation effect on the β2- and β5-subunits: MEL-JUSO cells, p38 inhibitor panel tested at 1 and 5 μM, effect at 5 μM, FIG. 14B
Protocol: as §1
Cells were washed once with PBS, trypsin (6 well plate: 500 μL, 12 well plate: 200 μL, 24 well plate: 100 μL) was added and the plate was placed at 37° C. for 5 minutes to allow the cells to detach. When fully detached the cells were resuspended in fresh culture medium. Medium with cells was collected and after a centrifugation step (1100 ref for 2 minutes) the cells (pellet) were resuspended in cold HR buffer (50 mM Tris pH=7.4, 5 mM MgCl2, 250 mM sucrose, 1 mM DTT and 2 mM ATP). Lysis of the cells is achieved by sonification (Bioruptor, high intensity for 5 minutes with an ON/OFF cycle of 30 seconds) at 4° C. After a centrifugation step (13.600 rpm for 10 minutes) to remove cell debris the protein concentration (absorbance at 280 nm) of the supernatant is measured with a NanoDrop spectrophotometer. Fresh HR buffer without any cells was used as a blank,
Equal amounts of protein (15-20 μg) were denatured by heating the samples for 10 minutes at 71° C. in loading buffer (450 μL 4× loading buffer (Invitrogen), 45 μL β-Mercaptoethanol and 105 μl, MilliQ, 2 parts sample to 1 part loading buffer). The samples were loaded onto a 12% SDS-PAGE gel using the NuPAGE system from Invitrogen. MOPS (3-(N-morpholino)propanesulfonic acid) was used as a running buffer. Gels run at 180 V for approximately 1.5-2.0 hours and were directly imaged using the ProXPRESS 2D Proteomic imaging system (Perkin Elmer). Resolution was set at 100 μm, excitation at 480/30 and emission at 530/30. To verify protein loading, gels were stained with Coomassie Brilliant Blue. Images were analyzed using Totallab analysis software (Nonlinear Dynamics, Newcastle upon Tyne, UK) to quantify the intensity of the bands detected.
Additionally, FACS and SDS-PAGE validation experiments were done in which cells were incubated for 16 hours with 0.1, 0.5, 1.0 or 5.0 μM compound.
The proteasomal subunits are then labeled using the fluorescent […] probe, which selectively binds only to active β-subunits of the proteasome. The fluorogenic-labeled proteasome subunits were visualized directly in-gel by fluorescence scanning.
To further investigate this, MelJuSo wild type cells were incubated with 5 μM Win 62,577 for one hour. Then the medium was changed for regular medium without the compound present. After one or two hours of “washout” cells were stained with the proteasome activity probe and analyzed with SDS-PAGE followed by fluorescent scanning of the gel. The results of this experiment are depicted in FIG. 17.

proteasome [4] = settings: literature overview; cited from earlier work; remark: listed apart in the source
MelJuSo wild type cells = experiment: Cell viability (resazurin) assay, MG132 induced cell death; settings: 1 μM, 24 hours
[5] = LOPAC and JHCCL library screen, 5 μM compound, 16 hours, 200 nM probe two hours

Molecule: CN1[C@@H]2CC[C@H]1C[C@@H](OC(c1ccccc1)c1ccccc1)C2 [benztropin]
- screening hit (FL-1 log 2 ratio >1.00 and no exclusion criterion met) [1, 5]: initially identified in the JHCCL screen

Molecule: Lysophosphatidylinositol
- Results: purified proteasome/lysate (proteasome [2]): Increases mainly

Molecule: COc1ccc(CCN(C)CCCC(C#N)(c2ccc(OC)c(OC)c2)C(C)C)cc1OC (centres unmarked) [verapamil, Verapamil]
- screening hit (FL-1 log 2 ratio >1.00 and no exclusion criterion met) [1]: identified as hits in both

Molecule: CCCCCCCCCCCCOS(=O)(=O)[O-].[Na+] [SDS]
- Results: purified proteasome/lysate (proteasome [2]): Increases all 3 proteasome

Molecule: CN(C)CCC[C@@]1(c2ccc(F)cc2)OCc2cc(C#N)ccc21 [escitalopram]
- screening hit (FL-1 log 2 ratio >1.00 and no exclusion criterion met) [1, 5]: initially identified in the JHCCL screen

Molecule: Polyarginine
- Results: purified proteasome/lysate (proteasome [2]): Increases mainly

Molecule: Oc1ccc(-c2nc(-c3ccc(F)cc3)c(-c3ccncc3)[nH]2)cc1 [SB202190]
- inhibition of p38α isoform (p38α): inhibits both the p38α and p38β-isoforms
- activation effect on the β2- and β5-subunits [3]: pronounced activation effect
- activation effect on the β2- and β5-subunits ([3]; listed as SB202150): most pronounced

Molecule: COc1cccc(-c2cc(=O)c3ccccc3o2)c1N [PD98059]
- activation effect on the β2- and β5-subunits [3]: most pronounced; also recorded: pronounced activation effect
- activation effect on the β2- and β5-subunits ([3]; listed as PD98052): seems to enhance the activity

Molecule: Cc1cc(C(=O)CN2CCCC2)c(C)n1-c1ccc(F)cc1 [USP14 inhibitor, IU1]
- Results: purified proteasome/lysate (proteasome [2]): Increases all 3 proteasome
- Results: live cells (proteasome [4]): Increases all 3
- FL-1 log 2 score compared to the compounds identified in the screen ([1]; 5 μM, 16 hours, triplicate): scores relatively low

Molecule: CCCCC/C=C\C/C=C\CCCCCCCC(=O)O [Linoleic acid]
- Results: purified proteasome/lysate (proteasome [2]): Increases all 3 proteasome

Molecule: C#C[C@]1(O)CC[C@H]2C3CCC4=Cc5nc6nc7ccccc7n6cc5C[C@]4(C)C3CC[C@@]21C (some centres unmarked) [Win 62,577]
- probe signal after one hour of incubation, no washout [3]: strong activation; also recorded: clear increase in signal
- probe signal after one hour of washout [3]: still more than the untreated control but less when compared to the no washout
- probe signal after two hours of washout [3]: disappeared
- timeframe of onset and termination of increasing proteasome activity [3]: 1 to 2 h
- concentration dependence of proteasome activation (FL-1 signal) [1]: dose-dependent increase of the fluorescent signal
- screening hit (FL-1 log 2 ratio >1.00 and no exclusion criterion met) [1]: identified as hits
- time dependence of proteasome activation (FL-1 log 2 ratio) [1]: mild decrease after 48 hours of incubation

Molecule: CC(C)C[C@@H](C=O)NC(=O)[C@H](CC(C)C)NC(=O)[C@H](CC(C)C)NC(=O)OCc1ccccc1 [MG132] (Cbz-Leu-Leu-Leu-aldehyde)
- cytotoxicity (MelJuSo wild type cells): highly cytotoxic
- fluorescent probe signal compared to untreated cells [1]: reduces the signal compared to untreated cells

Molecule: CC(C)OC(=O)C(C)(C)Oc1ccc(C(=O)c2ccc(Cl)cc2)cc1 [fenofibrate, Fenofibrate]
- screening hit (FL-1 log 2 ratio >1.00 and no exclusion criterion met) [1, 5]: identified as hits

Molecule: Ceramides
- Results: purified proteasome/lysate (proteasome [2]): Increases mainly

Molecule: Nc1ccc2cc3ccc(N)cc3nc2c1 [proflavine, Proflavine]
- screening hit (FL-1 log 2 ratio >1.00 and no exclusion criterion met) [1, 5]: identified as hits

Molecule: O=c1[nH]c2ccccc2n1C1CCN(CCCC(c2ccc(F)cc2)c2ccc(F)cc2)CC1 [pimozide, Pimozide]
- screening hit (FL-1 log 2 ratio >1.00 and no exclusion criterion met) [1, 5]: identified as hits

Molecule: Fc1ccc(-c2nc3n(c2-c2ccncc2)CCS3)cc1 [SKF86002]
- inhibition of p38α isoform (p38α): inhibits only p38α

Molecule: Methylbenzethonium
- screening hit (FL-1 log 2 ratio >1.00 and no exclusion criterion met) [1, 5]: identified as hits

Molecule: Cardiolipin
- Results: purified proteasome/lysate (proteasome [2]): Increases mainly

Molecule: CC/C=C\C/C=C\C/C=C\CCCCCCCC(=O)O [alpha linolenic acid]
- Results: purified proteasome/lysate (proteasome [2]): Increases all 3 proteasome

Molecule: CCCCCCCC/C=C\CCCCCCCC(=O)O [Oleic acid]
- Results: purified proteasome/lysate (proteasome [2]): Increases all 3 proteasome

Molecule: OCCN(CCO)c1nc(N2CCCCC2)c2nc(N(CCO)CCO)nc(N3CCCCC3)c2n1 [dipyrimadole, Dipyrimadole]
- screening hit (FL-1 log 2 ratio >1.00 and no exclusion criterion met) [1, 5]: identified as hits in both

Molecule: CCCn1c(=O)c2[nH]c(C3CCCC3)nc2n(CCC)c1=O [DPCPX, 8-cyclopenthyl-1,3-dipropylxanthine]
- time dependence of proteasome activation (FL-1 log 2 ratio) ([1]; 0.1, 0.5, 1.0 or 5.0 μM compound for 4, 16, 24 or 48 hours): both concentration and time dependent; also recorded: displayed an increase in activation over time
- screening hit (FL-1 log 2 ratio >1.00 and no exclusion criterion met) [1, 5]: identified as hits

Molecule: CN(C)C(=O)C(CCN1CCC(O)(c2ccc(Cl)cc2)CC1)(c1ccccc1)c1ccccc1 [loperamide, Loperamide]
- screening hit (FL-1 log 2 ratio >1.00 and no exclusion criterion met) [1]: identified as hits

Molecule: CC#C[C@]1(O)CC[C@H]2[C@@H]3CCC4=CC(=O)CCC4=C3[C@@H](c3ccc(N(C)C)cc3)C[C@@]21C [mifepristone, Mifepristone]
- screening hit (FL-1 log 2 ratio >1.00 and no exclusion criterion met) [1, 5]: identified as hits

Molecule: Polylysine
- Results: purified proteasome/lysate (proteasome [2]): Increases mainly

Molecule: CN1C[C@H](CNC(=O)OCc2ccccc2)C[C@@H]2c3cccc4c3c(cn4C)C[C@H]21 [metergoline, Metergoline]
- screening hit (FL-1 log 2 ratio >1.00 and no exclusion criterion met) [1, 5]: identified as hits

Molecule: Medroxyprogesterone
- screening hit (FL-1 log 2 ratio >1.00 and no exclusion criterion met) [1]: initially identified in the JHCCL screen
